# Several values for one entry are separate records, joined by “and”; a condition that tells them apart may be missing. Equal entries are not always repeated. Where two headings read alike, the source gives them in different places. Marks after values point to notes of the source that are not given here.
# Legend:
# [1] = system: dogs with chronic idiopathic epilepsy; test: add-on therapy in dogs with chronic idiopathic epilepsy not responding to phenobarbital or primidone; type: in vivo, dog
# [2] = system: dogs with newly diagnosed idiopathic epilepsy; test: monotherapy in dogs with newly diagnosed idiopathic epilepsy (AWD 131-138 pilot study; retrospective phenobarbital, primidone)
# benzodiazepine receptor = settings: co administration of flumazenil; cited from earlier work
# [3] = system: cloned human GABA receptor complexes; settings: cited from earlier work
# [4] = system: chemically induced seizure threshold; settings: dogs, cited from earlier work
# [5] = side effects: owner questionnaire and follow up examinations with blood work
# [6] = system: benzodiazepine binding site of the GABAA receptor; settings: broad receptor screen; cited from earlier work
# calcium channel = settings: cited from earlier work
# [7] = self administration paradigm; cited from earlier work
# [8] = plasma concentration of AWD 131-138 (HPLC/mass spectrometry); type: in vivo, dog; settings: for concentration at 12 h: 12 hours after application
# Description: A pharmacokinetic study was performed at the beginning of treatment in 2 dogs with AWD 131-138 monotherapy and in 4 dogs with a combination therapy of AWD 131-138 and phenobarbital or primidone. All 6 dogs received 5 mg/kg bodyweight AWD 131-138. Blood was taken 3 times every 2 hours. […] The same method was used as a compliance control during the follow up examinations. Blood was taken two and twelve hours after oral administration of AWD 131-138.
# In six dogs entering the pilot study with AWD 131-138 a pharmacokinetic study was performed. AWD 131-138 was measured in plasma samples two, four and six hours after application. The initial dosage of AWD 131-138 was 5 mg/kg bodyweight p.o. in all cases.
# [9] = monkeys; cited from earlier work
# [10] = grand mal seizures, add-on to phenobarbital or primidone
# [11] = grand mal seizures, on phenobarbital or primidone before add-on
# [12] = median, on phenobarbital/primidone before add-on
# [13] = grand mal seizures, baseline before monotherapy
# [14] = grand mal seizures, monotherapy
# [15] = median group value, baseline before monotherapy
# [16] = median group value, monotherapy, asterisk = P<0.05 vs before
# [17] = 12 newly diagnosed dogs, monotherapy
# [18] = add-on, abnormalities already at the beginning of the study
smiles,measurement,setting,value
"O=C1N=C(N2CCOCC2)CN1c1ccc(Cl)cc1 [AWD 131-138, 1-(4-chlorophenyl)-4-(4-morpholinyl)-2,5-dihydro-1H-imidazol-2-one]",comparison of antiepileptic efficacy between the two add on treatment schedules,[1]; Fisher's exact test,did not indicate any significant difference
same,"decrease of number of seizures per cluster, mean",[1]; add-on,39.5%
same,dogs in which clusters did not occur anymore,[1]; add-on,three
same,dogs in which focal seizures replaced grand mal seizures partially,[1]; add-on,nine
same,dogs with a seizure reduction under 50%,[1]; add-on,4
same,dogs with decreased number of seizures per cluster,[1]; add-on,4
same,dogs with worsening of seizure severity reported by owner,[1]; add-on,One
same,number of dogs with decreased duration of the ictus,[1]; add-on,3
same,number of dogs with shortened postictal phase,[1]; add-on,ten
same,owners reporting subjectively a decrease of seizure severity,[1]; add-on,eight of seventeen
same,"postictal phase during treatment, mean",[1]; add-on,5.5 h
same,dogs that died or were euthanized in status epilepticus,[1]; add-on to phenobarbital or primidone,Nine
same,"shortening of the postictal phase, mean","[1]; add-on, in the dogs with shortening",54%
same,"duration of the ictus during treatment, median",[1]; [10],2.0 min
same,"duration of the ictus during treatment, time range",[1]; [10],0.5 to 5 min
same,"duration of the ictus before treatment, median",[1]; [11],2.0 min
same,"duration of the ictus before treatment, time range",[1]; [11],0.5 to 10 min
same,% reduction of seizures in responders,"[1]; mean ± SEM, add-on to phenobarbital/primidone",47.2 ± 8.8%
same,"Seizure frequency during treatment, all dogs","[1]; median, add-on to phenobarbital/primidone",2.0 seizures/month
same,"Seizure frequency during treatment, without nonresponders","[1]; median, add-on to phenobarbital/primidone, asterisk = P<0.05",1.1* seizures/month
same,"Seizure frequency before treatment, all dogs",[1]; [12],1.9 seizures/month
same,"Seizure frequency before treatment, without nonresponders",[1]; [12],2.4 seizures/month
same,comparison of antiepileptic efficacy between monotherapy treatment groups,[2]; ANOVA,did not indicate any significant differences
same,"duration of the ictus before treatment, median",[2]; [13],3.0 min
same,"duration of the ictus before treatment, time range",[2]; [13],0.5 to 10 min
same,"duration of the ictus during treatment, median",[2]; [14],2.5 min
same,"duration of the ictus during treatment, time range",[2]; [14],0.5 to 10 min
same,% reduction of seizures in responders,"[2]; mean ± SEM, monotherapy",49.8 ± 11.3%
same,"Seizure frequency before treatment, all dogs",[2]; [15],1.6 seizures/month
same,"Seizure frequency before treatment, without nonresponders",[2]; [15],1.7 seizures/month
same,"Seizure frequency during treatment, all dogs",[2]; [16],0.71 seizures/month
same,"Seizure frequency during treatment, without nonresponders",[2]; [16],0.55* seizures/month
same,dogs that died or were euthanized in status epilepticus,[2]; monotherapy,One
same,dogs with focal seizures instead of grand mal seizures during treatment,[2]; monotherapy,two
same,dogs with reduced seizure number per cluster,[2]; monotherapy,4
same,number of dogs with decreased duration of the ictus,[2]; monotherapy,five
same,number of dogs with shortened postictal phase,[2]; monotherapy,four
same,owners reporting subjectively a decrease of seizure severity,[2]; monotherapy,nine of 12
same,"reduction of seizure number per cluster, mean",[2]; monotherapy,45.3%
same,dogs in which clusters no longer developed,"[2]; monotherapy, dogs with clusters before treatment",One
same,"decrease of the duration of the ictus, mean","[2]; monotherapy, in the dogs with a decrease",38%
same,antagonism of anticonvulsive activity by flumazenil,benzodiazepine receptor,partly antagonised
same,antagonism of anxiolytic activity by flumazenil,benzodiazepine receptor,fully antagonised
same,mode of action at the benzodiazepine receptor,[3]; different cloned human GABA receptor complexes,low affinity partial agonist at the benzodiazepine receptor without subtype selectivity
same,maximal stimulation,[3]; of the effect of diazepam,20%
same,increase of seizure threshold (PTZ convulsive threshold),[4]; 20 mg/kg p.o.,39%
same,increase of seizure threshold (PTZ convulsive threshold),[4]; 40 mg/kg p.o.,118%
same,sedation,[5]; [17],no sedation occurred
same,tolerability,[5]; [17],exceptionally well tolerated
same,hematology and blood chemistry,"[5]; 12 newly diagnosed dogs, monotherapy, follow up",No abnormalities were found
same,"polyphagia, cases","[5]; 12 newly diagnosed dogs, monotherapy, in 4 dogs only at the beginning",7 (58%)
same,tolerability,"[5]; 17 dogs with chronic epilepsy, add-on",very well tolerated
same,"hematology (red, white and differential cell count)","[5]; 17 dogs with chronic epilepsy, add-on, follow up",No abnormalities were found
same,"polyphagia, cases","[5]; 17 dogs with chronic epilepsy, add-on, in 7 dogs only at the beginning",10 (59%)
same,"elevation of liver enzymes (ALT, GLDH and AP)",[5]; AWD 131-138 monotherapy,not observed
same,dogs with ataxia in the hind limbs and apathy 2 4 hours after application,"[5]; add-on, 40 mg/kg per day, combined phenobarbital with serum concentrations 56.6 58.9 μg/mL",Two
same,dogs with elevation of ALT,[5]; [18],1
same,dogs with elevation of AP,[5]; [18],6
same,dogs with elevation of GLDH,[5]; [18],3
same,affinity for the benzodiazepine binding site,[6],very low affinity
same,calcium channel blocking effect,calcium channel,weak calcium channel blocking effect
same,substitution for cocaine,[7],did not substitute for cocaine
same,AWD 131-138 plasma concentration,"[8]; 2 hours after 5 mg/kg p.o., AWD 131-138 monotherapy, individual dogs",720.0 ng/mL and 2579.2 ng/mL
same,AWD 131-138 plasma concentration,"[8]; 2 hours after 5 mg/kg p.o., phenobarbital combination therapy, individual dogs",23.27 ng/mL and 1019.5 ng/mL
same,AWD 131-138 plasma concentration,"[8]; 2 hours after 5 mg/kg p.o., primidone combination therapy, individual dogs",2392.3 ng/mL
same,AWD 131-138 plasma concentration,"[8]; 4 hours after 5 mg/kg p.o., AWD 131-138 monotherapy, individual dogs",702.7 ng/mL and 1461.0 ng/mL
same,AWD 131-138 plasma concentration,"[8]; 4 hours after 5 mg/kg p.o., phenobarbital combination therapy, individual dogs",Bld
same,AWD 131-138 plasma concentration,"[8]; 4 hours after 5 mg/kg p.o., primidone combination therapy, individual dogs",1021.5 ng/mL and 2438.7 ng/mL
same,AWD 131-138 plasma concentration,"[8]; 6 hours after 5 mg/kg p.o., AWD 131-138 monotherapy, individual dogs",229.5 ng/mL and 709.0 ng/mL
same,AWD 131-138 plasma concentration,"[8]; 6 hours after 5 mg/kg p.o., phenobarbital combination therapy, individual dogs",bld (bld (below limit of detection): <2 ng/mL)
same,AWD 131-138 plasma concentration,"[8]; 6 hours after 5 mg/kg p.o., primidone combination therapy, individual dogs",448.1 ng/mL and 1289.0 ng/mL
same,concentration at 2 h,"[8]; dog, plasma, oral, 5 mg/kg bodyweight, 2 hours after 5 mg/kg p.o., primidone combination therapy, individual dogs, read-out: AWD 131-138 plasma concentration",1520 ng/mL
same,concentration at 4 h,"[8]; dog, plasma, oral, 5 mg/kg bodyweight, 4 hours after 5 mg/kg p.o., phenobarbital combination therapy, individual dogs",174 ng/mL
same,concentration at 6 h,"[8]; dog, plasma, oral, 5 mg/kg bodyweight, 6 hours after 5 mg/kg p.o., phenobarbital combination therapy, individual dogs",19.5 ng/mL
same,concentration at 2 h,"[8]; dog, plasma, oral, 30 mg/kg, 2 hours after application, 30 mg/kg, non responder dog that died in status epilepticus, read-out: AWD 131-138 plasma concentration",4000 ng/mL
same,concentration at 2 h,"[8]; dog, plasma, oral, 40 mg/kg/day, 2 hours after application, 40 mg/kg per day, two dogs with ataxia on combined phenobarbital treatment, read-out: AWD 131-138 plasma concentration, range",5560 to 10900 ng/mL
same,concentration at 2 h,"[8]; dog, plasma, oral, chronic epilepsy add on, 2 hours after application, 10-15 mg/kg twice a day, seventeen dogs, read-out: AWD 131-138 plasma concentration, range",280 to 10600 ng/mL
same,concentration at 2 h,"[8]; dog, plasma, oral, chronic epilepsy add on, 2 hours after application, read-out: AWD 131-138 plasma concentration, mean",3900 ng/mL
same,concentration at 2 h,"[8]; dog, plasma, oral, chronic epilepsy add on, 2 hours after application, read-out: AWD 131-138 plasma concentration, median",2990 ng/mL
same,concentration at 12 h,"[8]; dog, plasma, oral, chronic epilepsy add on, read-out: AWD 131-138 plasma concentration, mean",644 ng/mL
same,concentration at 12 h,"[8]; dog, plasma, oral, chronic epilepsy add on, read-out: AWD 131-138 plasma concentration, median",179 ng/mL
same,concentration at 12 h,"[8]; dog, plasma, oral, chronic epilepsy add on, read-out: AWD 131-138 plasma concentration, range",7.57 to 5870 ng/mL
same,concentration at 2 h,"[8]; dog, plasma, oral, newly diagnosed dogs, three weeks of treatment, 2 hours after oral application, 10-20 mg/kg twice a day, eleven cases, read-out: AWD 131-138 plasma concentration, range",53.3 to 8620 ng/mL
same,concentration at 12 h,"[8]; dog, plasma, oral, newly diagnosed dogs, three weeks, twelve dogs, read-out: AWD 131-138 plasma concentration, range",5.4 to 1140 ng/mL
same,concentration at 12 h,"[8]; dog, plasma, oral, newly diagnosed dogs, three weeks, read-out: AWD 131-138 plasma concentration, mean",378 ng/mL
same,concentration at 12 h,"[8]; dog, plasma, oral, newly diagnosed dogs, three weeks, read-out: AWD 131-138 plasma concentration, median",218 ng/mL
same,concentration at 2 h,"[8]; dog, plasma, po, newly diagnosed dogs, three weeks, 2 hours after oral application, read-out: AWD 131-138 plasma concentration, mean",3360 ng/mL
same,concentration at 2 h,"[8]; dog, plasma, po, newly diagnosed dogs, three weeks, 2 hours after oral application, read-out: AWD 131-138 plasma concentration, median",2580 ng/mL
same,identified as benzodiazepine like,[9],did not identify AWD 131-138 as benzodiazepine like
